Assay results reported in PubChem BioAssay (NCI).
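1) Cells in 96-well plates. 2) Compound, 48 h, 5 concentrations. 3) Linear interpolation between surrounding doses. 4) Unreached endpoint = highest concentration. GI50 marks 50% less growth. TGI marks complete inhibition of growth.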

tested on: RXF 393 renal; assay: growth of human tumour cells (NCI), 48 h

SMILES | GI50 [µM] | TGI [µM]
Cc1ccc(N(CSc2ccc(Cl)cc2)CSc2ccc(Cl)cc2)cc1 | 1.73 | 7.57
Cc1[nH][nH]c(=O)c1C=Nc1ccc(-c2nc3ccccc3[nH]2)cc1 | 11.1 | 46.6
O=c1c(-c2ccccc2)c(SCCCN2CCN(c3cccc(Cl)c3)CC2)n(-c2ccccc2)c(=S)n1-c1ccccc1 | – | > 100

tested on: HCT-116 colon; assay: growth of human tumour cells (NCI), 48 h

SMILES | GI50 [µM] | TGI [µM]
CCN1C(=O)N(CC)C2C1NC(=S)N2/N=C/C=C/c1cccs1 (stereo not given) | 0.404 | > 100
Cc1ccc(N(CSc2ccc(Cl)cc2)CSc2ccc(Cl)cc2)cc1 | 1.52 | 10.9

tested on: HS 578T breast; assay: growth of human tumour cells (NCI), 48 h

SMILES | GI50 [µM] | TGI [µM]
CCN1C(=O)N(CC)C2C1NC(=S)N2/N=C/C=C/c1cccs1 (stereo not given) | 0.281 | –
Cc1[nH][nH]c(=O)c1C=Nc1ccc(-c2nc3ccccc3[nH]2)cc1 | 29 | 63.9
O=c1c(-c2ccccc2)c(SCCCN2CCN(c3cccc(Cl)c3)CC2)n(-c2ccccc2)c(=S)n1-c1ccccc1 | – | > 100

tested on: UACC-62 melanoma; assay: growth of human tumour cells (NCI), 48 h

SMILES | GI50 [µM] | TGI [µM]
CCN1C(=O)N(CC)C2C1NC(=S)N2/N=C/C=C/c1cccs1 (stereo not given) | 0.45 | > 100
Cc1ccc(N(CSc2ccc(Cl)cc2)CSc2ccc(Cl)cc2)cc1 | 0.818 | 2.91
Cc1[nH][nH]c(=O)c1C=Nc1ccc(-c2nc3ccccc3[nH]2)cc1 | 15.5 | 38
O=c1c(-c2ccccc2)c(SCCCN2CCN(c3cccc(Cl)c3)CC2)n(-c2ccccc2)c(=S)n1-c1ccccc1 | – | > 100

tested on: ACHN renal; assay: growth of human tumour cells (NCI), 48 h

SMILES | GI50 [µM] | TGI [µM]
CCN1C(=O)N(CC)C2C1NC(=S)N2/N=C/C=C/c1cccs1 (stereo not given) | 0.804 | > 100
Cc1ccc(N(CSc2ccc(Cl)cc2)CSc2ccc(Cl)cc2)cc1 | 2.11 | 15.7
Cc1[nH][nH]c(=O)c1C=Nc1ccc(-c2nc3ccccc3[nH]2)cc1 | 30.1 | > 100
O=c1c(-c2ccccc2)c(SCCCN2CCN(c3cccc(Cl)c3)CC2)n(-c2ccccc2)c(=S)n1-c1ccccc1 | – | > 100

tested on: 786-0 renal; assay: growth of human tumour cells (NCI), 48 h

SMILES | GI50 [µM] | TGI [µM]
CCN1C(=O)N(CC)C2C1NC(=S)N2/N=C/C=C/c1cccs1 (stereo not given) | 0.615 | > 100
Cc1ccc(N(CSc2ccc(Cl)cc2)CSc2ccc(Cl)cc2)cc1 | 1.66 | 7.66
Cc1[nH][nH]c(=O)c1C=Nc1ccc(-c2nc3ccccc3[nH]2)cc1 | 18.9 | 38.3

tested on: SNB-75 CNS; assay: growth of human tumour cells (NCI), 48 h

SMILES | GI50 [µM] | TGI [µM]
Cc1ccc(N(CSc2ccc(Cl)cc2)CSc2ccc(Cl)cc2)cc1 | 1.39 | 8.7
Cc1[nH][nH]c(=O)c1C=Nc1ccc(-c2nc3ccccc3[nH]2)cc1 | 19.6 | 40.5
O=c1c(-c2ccccc2)c(SCCCN2CCN(c3cccc(Cl)c3)CC2)n(-c2ccccc2)c(=S)n1-c1ccccc1 | – | > 100

tested on: HT29 colon; assay: growth of human tumour cells (NCI), 48 h

SMILES | GI50 [µM] | TGI [µM]
CCN1C(=O)N(CC)C2C1NC(=S)N2/N=C/C=C/c1cccs1 (stereo not given) | 0.352 | > 100
Cc1ccc(N(CSc2ccc(Cl)cc2)CSc2ccc(Cl)cc2)cc1 | 1.85 | 24.1
O=c1c(-c2ccccc2)c(SCCCN2CCN(c3cccc(Cl)c3)CC2)n(-c2ccccc2)c(=S)n1-c1ccccc1 | – | > 100

tested on: SK-MEL-28 melanoma; assay: growth of human tumour cells (NCI), 48 h

SMILES | TGI [µM] | GI50 [µM]
CCN1C(=O)N(CC)C2C1NC(=S)N2/N=C/C=C/c1cccs1 (stereo not given) | > 100 | –
Cc1ccc(N(CSc2ccc(Cl)cc2)CSc2ccc(Cl)cc2)cc1 | 4.23 | 1.64
O=c1c(-c2ccccc2)c(SCCCN2CCN(c3cccc(Cl)c3)CC2)n(-c2ccccc2)c(=S)n1-c1ccccc1 | > 100 | –

tested on: BT-549 breast; assay: growth of human tumour cells (NCI), 48 h

SMILES | GI50 [µM] | TGI [µM]
CCN1C(=O)N(CC)C2C1NC(=S)N2/N=C/C=C/c1cccs1 (stereo not given) | 1.2 | 9.09
Cc1ccc(N(CSc2ccc(Cl)cc2)CSc2ccc(Cl)cc2)cc1 | 0.334 | 1.54
Cc1[nH][nH]c(=O)c1C=Nc1ccc(-c2nc3ccccc3[nH]2)cc1 | 36.2 | 97.1
O=c1c(-c2ccccc2)c(SCCCN2CCN(c3cccc(Cl)c3)CC2)n(-c2ccccc2)c(=S)n1-c1ccccc1 | – | > 100

tested on: UO-31 renal; assay: growth of human tumour cells (NCI), 48 h

SMILES | GI50 [µM] | TGI [µM]
CCN1C(=O)N(CC)C2C1NC(=S)N2/N=C/C=C/c1cccs1 (stereo not given) | 0.923 | > 100
Cc1ccc(N(CSc2ccc(Cl)cc2)CSc2ccc(Cl)cc2)cc1 | 0.717 | 2.75
Cc1[nH][nH]c(=O)c1C=Nc1ccc(-c2nc3ccccc3[nH]2)cc1 | 31.8 | > 100

tested on: SR leukemia; assay: growth of human tumour cells (NCI), 48 h

SMILES | GI50 [µM] | TGI [µM]
CCN1C(=O)N(CC)C2C1NC(=S)N2/N=C/C=C/c1cccs1 (stereo not given) | 0.217 | > 38.9
Cc1ccc(N(CSc2ccc(Cl)cc2)CSc2ccc(Cl)cc2)cc1 | 1.04 | 4.86
Cc1[nH][nH]c(=O)c1C=Nc1ccc(-c2nc3ccccc3[nH]2)cc1 | 39.7 | 97.1
O=c1c(-c2ccccc2)c(SCCCN2CCN(c3cccc(Cl)c3)CC2)n(-c2ccccc2)c(=S)n1-c1ccccc1 | – | > 100

tested on: U251 CNS; assay: growth of human tumour cells (NCI), 48 h

SMILES | GI50 [µM] | TGI [µM]
CCN1C(=O)N(CC)C2C1NC(=S)N2/N=C/C=C/c1cccs1 (stereo not given) | 0.342 | > 100
Cc1ccc(N(CSc2ccc(Cl)cc2)CSc2ccc(Cl)cc2)cc1 | 0.581 | 11.2
Cc1[nH][nH]c(=O)c1C=Nc1ccc(-c2nc3ccccc3[nH]2)cc1 | 19 | 44.7
O=c1c(-c2ccccc2)c(SCCCN2CCN(c3cccc(Cl)c3)CC2)n(-c2ccccc2)c(=S)n1-c1ccccc1 | – | > 100

tested on: CCRF-CEM leukemia; assay: growth of human tumour cells (NCI), 48 h

SMILES | GI50 [µM] | TGI [µM]
CCN1C(=O)N(CC)C2C1NC(=S)N2/N=C/C=C/c1cccs1 (stereo not given) | 0.396 | > 100
Cc1ccc(N(CSc2ccc(Cl)cc2)CSc2ccc(Cl)cc2)cc1 | 0.246 | 2.5
Cc1[nH][nH]c(=O)c1C=Nc1ccc(-c2nc3ccccc3[nH]2)cc1 | 0.066 | > 100
O=c1c(-c2ccccc2)c(SCCCN2CCN(c3cccc(Cl)c3)CC2)n(-c2ccccc2)c(=S)n1-c1ccccc1 | – | > 100

tested on: MALME-3M melanoma; assay: growth of human tumour cells (NCI), 48 h

SMILES | GI50 [µM] | TGI [µM]
CCN1C(=O)N(CC)C2C1NC(=S)N2/N=C/C=C/c1cccs1 (stereo not given) | 0.485 | > 100
Cc1ccc(N(CSc2ccc(Cl)cc2)CSc2ccc(Cl)cc2)cc1 | 3.65 | 18.4
O=c1c(-c2ccccc2)c(SCCCN2CCN(c3cccc(Cl)c3)CC2)n(-c2ccccc2)c(=S)n1-c1ccccc1 | – | > 100

tested on: OVCAR-4 ovarian; assay: growth of human tumour cells (NCI), 48 h

SMILES | GI50 [µM] | TGI [µM]
CCN1C(=O)N(CC)C2C1NC(=S)N2/N=C/C=C/c1cccs1 (stereo not given) | 1.32 | > 100
Cc1ccc(N(CSc2ccc(Cl)cc2)CSc2ccc(Cl)cc2)cc1 | 2.78 | 31.4
